Patent US20220363665A1, “QUINOLINE COMPOUNDS FOR THE TREATMENT OF AUTOIMMUNE DISEASE” (Hoffmann-La Roche Inc., priority 2019, published 2022)
Values after ≈ are worked out from the molar mass of the structure shown.

What was measured:
LYSA solubility assay = assay type: physicochemical; conditions: 0.05 M phosphate buffer, pH 6.5, aqueous buffer, thermodynamic from solid
Procedure: LYSA study is used to determine the aqueous solubility of tested compounds. Samples are prepared in duplicate from 10 mM DMSO stock solution. After evaporation of DMSO with a centrifugal vacuum evaporator, compounds are dissolved in a 0.05 M phosphate buffer (pH 6.5), stirred for one hr and shaken for two hrs. After one night, the solutions are filtered using a microtiter filter plate. Then the filtrate and its 1/10 dilution are analyzed by HPLC-UV. In addition, a four-point calibration curve is prepared from the 10 mM stock solutions and used for the solubility determination of the compounds. The results are in μg/mL. In case the percentage of sample measured in solution after evaporation divided by the calculated maximum of sample amount is bigger than 80%, the solubility is reported as bigger than this value.

human TLR7 = target: T1, human TLR7 (Homo sapiens, UniProt Q9NYK1); test: HEK293-Blue-hTLR-7 cells assay (SEAP reporter, R848 stimulation); assay type: cell-based; conditions: HEK293-Blue-hTLR7 cells, R848, 20 hrs
T1 construct: host or cells: HEK293 (HEK-Blue hTLR7)
T1 sequence (Q9NYK1 27-1049): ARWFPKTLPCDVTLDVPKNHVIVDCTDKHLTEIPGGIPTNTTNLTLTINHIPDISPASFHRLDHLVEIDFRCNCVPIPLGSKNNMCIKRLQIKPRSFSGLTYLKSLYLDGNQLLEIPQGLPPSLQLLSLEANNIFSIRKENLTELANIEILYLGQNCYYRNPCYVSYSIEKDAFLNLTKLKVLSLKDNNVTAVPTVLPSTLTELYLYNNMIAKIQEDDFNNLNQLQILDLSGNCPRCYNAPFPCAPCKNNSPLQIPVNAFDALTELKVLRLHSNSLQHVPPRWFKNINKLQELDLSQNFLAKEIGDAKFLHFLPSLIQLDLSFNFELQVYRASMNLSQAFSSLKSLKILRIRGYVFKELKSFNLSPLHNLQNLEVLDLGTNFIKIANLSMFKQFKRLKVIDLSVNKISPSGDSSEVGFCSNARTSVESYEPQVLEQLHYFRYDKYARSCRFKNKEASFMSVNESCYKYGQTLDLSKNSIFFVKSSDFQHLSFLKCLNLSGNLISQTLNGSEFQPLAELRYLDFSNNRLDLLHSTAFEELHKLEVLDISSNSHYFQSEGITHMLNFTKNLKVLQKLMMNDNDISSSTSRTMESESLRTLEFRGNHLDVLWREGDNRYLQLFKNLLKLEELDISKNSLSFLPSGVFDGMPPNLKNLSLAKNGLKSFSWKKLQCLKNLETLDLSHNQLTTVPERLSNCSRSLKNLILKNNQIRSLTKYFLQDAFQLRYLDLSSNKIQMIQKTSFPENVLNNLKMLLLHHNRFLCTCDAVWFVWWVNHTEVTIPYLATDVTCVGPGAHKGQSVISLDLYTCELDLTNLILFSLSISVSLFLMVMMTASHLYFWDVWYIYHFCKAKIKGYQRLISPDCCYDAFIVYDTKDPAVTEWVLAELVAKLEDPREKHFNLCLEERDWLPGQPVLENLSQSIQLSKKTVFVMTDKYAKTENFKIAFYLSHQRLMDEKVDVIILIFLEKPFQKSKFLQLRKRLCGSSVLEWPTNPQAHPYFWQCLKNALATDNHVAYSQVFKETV
Procedure: The following tests were carried out in order to determine the activity of the compounds of formula (I) in HEK293-Blue-hTLR-7/8/9 cells assay.
HEK293-Blue-hTLR-7 Cells Assay:
A stable HEK293-Blue-hTLR-7 cell line was purchased from InvivoGen (Cat. #: hkb-htlr7, San Diego, Calif. USA). These cells were originally designed for studying the stimulation of human TLR7 by monitoring the activation of NF-κB. A SEAP (secreted embryonic alkaline phosphatase) reporter gene was placed under the control of the IFN-β minimal promoter fused to five NF-κB and AP-1-binding sites. The SEAP was induced by activating NF-κB and AP-1 via stimulating HEK-Blue hTLR7 cells with TLR7 ligands. Therefore the reporter expression was declined by TLR7 antagonist under the stimulation of a ligand, such as R848 (Resiquimod), for incubation of 20 hrs. The cell culture supernatant SEAP reporter activity was determined using QUANTI-Blue™ kit (Cat. #: rep-qbl, Invivogen, San Diego, Calif., USA) at a wavelength of 640 nm, a detection medium that turns purple or blue in the presence of alkaline phosphatase.
HEK293-Blue-hTLR7 cells were incubated at a density of 250,000˜450,000 cells/mL in a volume of 170 μL in a 96-well plate in Dulbecco's Modified Eagle's medium (DMEM) containing 4.5 g/L glucose, 50 U/mL penicillin, […], […], 2 mM L-glutamine, 10% (v/v) heat-inactivated fetal bovine serum with addition of 20 μL A test compound in a serial dilution in the presence of final DMSO at 1% and 10 μL of 20 uM R848 in above DMEM, perform incubation under 37° C. in a CO2 incubator for 20 hrs. Then 20 μL of the supernatant from each well was incubated with 180 μQuanti-blue substrate solution at 37° C. for 2 hrs and the absorbance was read at 620˜655 nm using a spectrophotometer. The signalling pathway that TLR7 activation leads to downstream NF-κB activation has been widely accepted, and therefore similar reporter assay was modified for evaluating TLR7 antagonist.

Compound	solubility thermodynamic (LYSA solubility assay) [µg/mL]	IC50 (human TLR7) [nM]
C[C@@H]1CN(c2ccc(C(F)(F)F)c3ncccc23)C[C@H](C(=O)N2CCC3(CCNC3)C2)O1 (stereo partly shown) [Example 36]	> 595	130
C[C@@H]1CN(c2ccc(C(F)(F)F)c3ncccc23)C[C@H](C(=O)NC2CC3CNCC(C3)C2)O1 (stereo partly drawn) [Example 37, (2R,6R)-N-(3-azabicyclo[3.3.1]nonan-7-yl)-6-methyl-4-[8-(trifluoromethyl)-5-quinolyl]morpholine-2-carboxamide]	> 660	2
C[C@@H]1CN(c2ccc(I)c3ncccc23)C[C@H](C(=O)NC2CCN(C)CC2)O1 [Example 38, (2R,6R)-4-(8-iodo-5-quinolyl)-6-methyl-N-(1-methyl-4-piperidyl)morpholine-2-carboxamide]	> 650	3
C[C@@H]1CN(c2ccc(I)c3ncccc23)C[C@H](C(=O)NCC2CN(C)CCO2)O1 (stereo partly drawn) [Example 39, (2R,6R)-4-(8-iodo-5-quinolyl)-6-methyl-N-[(4-methylmorpholin-2-yl)methyl]morpholine-2-carboxamide]	> 625	7
C[C@@H]1CN(c2ccc(I)c3ncccc23)C[C@H](C(=O)NC2CNCC2F)O1 (stereo partly drawn) [Example 40, cis-(2R,6R)-N-[4-fluoropyrrolidin-3-yl]-4-(8-iodo-5-quinolyl)-6-methyl-morpholine-2-carboxamide]	555 (≈ 1150 µM)	15
C[C@@H]1CN(c2ccc(Br)c3ncccc23)C[C@H](C(=O)NC2CNCC2F)O1 (stereo partly drawn) [Example 41, cis-(2R,6R)-4-(8-bromo-5-quinolyl)-N-[4-fluoropyrrolidin-3-yl]-6-methyl-morpholine-2-carboxamide]	> 675	15
C[C@@H]1CN(c2ccc(Br)c3ncccc23)C[C@H](C(=O)NC2CCN(C)CC2)O1 [Example 42, (2R,6R)-4-(8-bromo-5-quinolyl)-6-methyl-N-(1-methyl-4-piperidyl)morpholine-2-carboxamide]	> 550	5
C#Cc1ccc(N2C[C@@H](C)O[C@@H](C(=O)NC3CCN(C)CC3)C2)c2cccnc12 [Example 43, (2R,6R)-4-(8-ethynyl-5-quinolyl)-6-methyl-N-(1-methyl-4-piperidyl)morpholine-2-carboxamide]	> 560	10
C[C@@H]1CN(c2ccc(C(F)(F)F)c3ncccc23)C[C@H](C(=O)NC2C[C@H]3C[C@@H]2CN3)O1 (stereo partly shown) [Example 44]	> 600	18
C[C@@H]1CN(c2ccc(C(F)(F)F)c3ncccc23)C[C@H](C(=O)NC2C3CCCC2CNC3)O1 (stereo partly drawn) [Example 45, (2R,6R)-N-(3-azabicyclo[3.3.1]nonan-9-yl)-6-methyl-4-[8-(trifluoromethyl)-5-quinolyl]morpholine-2-carboxamide]	> 660	< 3
C[C@@H]1CN(c2ccc(C(F)(F)F)c3ncccc23)C[C@H](C(=O)NCC2CNCCO2)O1 (stereo partly drawn) [Example 48, (2R,6R)-6-methyl-N-(morpholin-2-ylmethyl)-4-[8-(trifluoromethyl)-5-quinolyl]morpholine-2-carboxamide]	> 625	4
